{
  "source": "ChEMBL document CHEMBL1649270",
  "about": "“ST-246 inhibits in vivo poxvirus dissemination, virus shedding, and systemic disease manifestation” (2009)",
  "key": {"[1]": {"test_system": "Vaccinia virus WR", "experiment": "Antiviral activity against Vaccinia virus WR ATCC VR-1354 infected through intraperitoneal route in BALB/c mouse assessed as reduction of viral load in lung at 100 mg/kg, po qd measured after 3 days postinfection by RT-PCR analysis relative to control", "format": "functional, organism-based", "set-up": "dose 100 mg/kg"}, "[2]": {"test_system": "Vaccinia virus WR", "experiment": "Antiviral activity against Vaccinia virus WR ATCC VR-1354 infected through subcutaneous route in BALB/c mouse assessed as protection against virus-induced satellite lesion formation on tails at 100 mg/kg, po qd measured after 6 days postinfection", "format": "functional, organism-based", "set-up": "dose 100 mg/kg"}, "[3]": {"test_system": "Vaccinia virus WR", "experiment": "Antiviral activity against Vaccinia virus WR ATCC VR-1354 infected through percutaneous route in BALB/c mouse assessed as reduction of viral load in liver at 100 mg/kg, po qd measured after 3 days postinfection by RT-PCR analysis relative to control", "format": "functional"}, "[4]": {"test_system": "Vaccinia virus WR", "experiment": "Antiviral activity against Vaccinia virus WR ATCC VR-1354 infected through percutaneous route in BALB/c mouse assessed as reduction of viral load in spleen at 100 mg/kg, po qd measured after 7 days postinfection by RT-PCR analysis relative to control", "format": "functional, organism-based", "set-up": "dose 100 mg/kg"}, "[5]": {"test_system": "Vaccinia virus WR", "experiment": "Antiviral activity against Vaccinia virus WR ATCC VR-1354 infected through dermal scarification route in BALB/c mouse assessed as reduction of viral load in spleen at 100 mg/kg, po qd measured after 5 days postinfection by RT-PCR analysis relative to control", "format": "functional"}, "[6]": {"test_system": "Vaccinia virus WR", "experiment": "Antiviral activity against Vaccinia virus WR ATCC VR-1354 infected through dermal scarification route in BALB/c mouse assessed as reduction of viral load in liver at 100 mg/kg, po qd measured after 5 days postinfection by RT-PCR analysis relative to control", "format": "functional"}, "[7]": {"test_system": "Vaccinia virus WR", "experiment": "Antiviral activity against Vaccinia virus WR ATCC VR-1354 infected through dermal scarification route in BALB/c mouse assessed as reduction of viral load in spleen at 100 mg/kg, po qd measured after 14 days postinfection by RT-PCR analysis relative to control", "format": "functional, organism-based", "set-up": "dose 100 mg/kg"}},
  "note": "Active and inactive are the calls of the source. No cut-off for these calls is given here.",
  "data": [
    {"smiles": "O=C(NN1C(=O)[C@@H]2[C@@H]3C=C[C@@H]([C@H]4C[C@@H]34)[C@@H]2C1=O)c1ccc(C(F)(F)F)cc1", "note": "[TECOVIRIMAT]", "values": [
      {"measurement": "Activity", "setting": "[1]", "value": "inactive"},
      {"measurement": "Activity", "setting": "[2]", "value": "Active"},
      {"measurement": "fold change (FC)", "setting": "[3]", "value": 45},
      {"measurement": "Activity", "setting": "[4]", "value": "Active"},
      {"measurement": "fold change (FC)", "setting": "[5]", "value": 16},
      {"measurement": "fold change (FC)", "setting": "[6]", "value": 8},
      {"measurement": "Activity", "setting": "[7]", "value": "Active"}
    ]}
  ]
}
